IC50 and Activity data for 5 compounds are collected here from ChEMBL document CHEMBL1154583, “Cytotoxic lavandulyl flavanones from Sophora flavescens” (J Nat Prod, 2000).

This assay relates to HL-60. Description: Cytotoxicity against human HL60 cells after 96 hrs by MTT assay. The format is functional, cell-based. The note with it: for IC50: HL-60, 96 h.

Structures are written as SMILES. Active and inactive are the calls of the source. The calls are words filed in the database; no cut-off is given here.

Consider `C=C(C)[C@H](CC=C(C)C)Cc1c(O)cc(OC)c2c1O[C@H](c1ccc(O)cc1OC)CC2=O`, for which the midpoint of inhibition, the IC50, lay at 13.7 µM. That is a double-digit micromolar value.
For `C=C(C)C(CC=C(C)C)Cc1c(O)cc(OC)c2c1O[C@H](c1ccc(O)cc1O)CC2=O` (stereo not given in full) [KURARINONE], the IC50 (commonly the point on the concentration scale where inhibition reaches its midpoint) was 18.5 µM.
On to `C=C(C)[C@H](CC=C(C)C)Cc1c(O)cc(O)c2c1O[C@H](c1ccc(O)cc1O)CC2=O` [SOPHORAFLAVANONE G], for which the IC50 stood at 12.5 µM.
Turning to `COc1ccc(-c2coc3cc(O)ccc3c2=O)cc1`, the result was inactive.
With `Oc1ccc2c(c1)OC[C@H]1c3cc4c(cc3O[C@@H]21)OCO4`, the outcome was inactive.
